According to patent US8557767B2, “Synthetic apolipoprotein E mimicking polypeptides and methods of use” (UAB Research Foundation, priority 2007, dated 2013):

Experiments:
[1] = system: apo E null mice; assay: Atherosclerosis inhibition in apo E null mice, retroorbital administration, en face lesion analysis; format: in vivo
Protocol: Extent of lesion is analyzed by en face preparation and staininf with Oil Red O.
Atherosclerosis inhibition studies in apo E null mice that develop atherosclerosis spontaneously were also performed. […] Lesion analysis was performed using the en face preparations. Sixteen week old mice would have well established lesions. […] Detailed studies on the mechanism of the inhibition of atherosclerosis are described below.

[2] = system: VCAM-1; assay: LPS-induced VCAM-1 expression in HUVEC (Western blot); format: cell-based, human; settings: peptide 50 ug/ml, LPS 1 ug/ml, 6 h exposure
Source text: HUVECs were challenged with the peptide alone, peptide +LPS and LPS. LPS induces expression of VCAM-1 (lane 3).
The effect of the peptide on the inflammatory response of bacterial lipopolysaccaride (LPS), a potent inducer of cytokines and cell adhesion molecules was also examined.

[3] = system: C57BL/6 on normal chow, LDL-R(null) mice; assay: Plasma cholesterol in C57BL/6 on normal chow and LDL-R(null) mice; format: in vivo; settings: LDL-R(null) on normal chow or on a Western diet
Source text: (§1) Although Ac-hE-18A-NH2 enhanced the hepatic uptake and degradation of atherogenic lipoproteins in apo E null mice, dual knockout mice (LDL-R(null)-apo E(null)), and C57BL/6 on an atherogenic diet, the peptide had no effect on the plasma cholesterol levels of C57BL/6 on normal chow, LDL-R(null) on normal chow or on a Western diet. […] However, the peptide is able to associate with human LDL (containing apo B-100) and VLDL and is able to enhance uptake and degradation of atherogenic human lipoproteins in HepG2 cells and in LDL-R (null) mouse model (Garber, D. W. et al. Atherosclerosis. 163:229-237 2003). The reason for the difference in the properties of apo B-100-containing human LDL and mouse LDL is not clear.

[4] = system: B-100-containing particles; assay: Association of peptide with mouse apo B-100-containing particles; format: binding; settings: LDL-R (null) and C57BL6 on normal chow
Source text: as §1

[5] = system: WHHL rabbits; assay: Single bolus i.v. administration in WHHL rabbits; format: in vivo, rabbit
Protocol: 100 μg of the ^125I-labelled peptide was mixed with 1 ml of plasma from 6 month old WHHL rabbit. After incubation for 1 h at room temperature, the plasma was subjected to CLiP analysis (66). Radioactivity in different fractions was determined and plotted on the CLiP profile. […] This improvement was associated with a reduction in 2 markers of oxidative stress.
Results observed in HepG2 cells indicate that peptide associates with apo B-containing plasma lipoproteins to incorporate positive charges on the lipoprotein surface. This enables the apo B-containing lipoproteins to interact with heparan sulphate proteoglycans (HSPGs). The effect of these peptides on the mode of reduction of plasma cholesterol levels in mouse models and the two rabbit models can be determined. In NZW rabbits fed a 1% cholesterol-diet, a reduction of plasma cholesterol is observed which lasts for 14 days after the peptide administration; whereas in the WHHL rabbits, the reduction is initially rapid and returns to original levels within 3 days. Since the WHHL rabbit model is LDL-receptor defective, the differential effects of the peptide in two models can be due to differences in the receptor-mediated clearance pathways of atherogenic lipoproteins. HepG2 cells, primary hepatocytes from apo E null and LDL-R null mice, and primary rabbit hepatocytes can be used to determine the molecular factors in the receptor-mediated clearance pathways of atherogenic lipoproteins.

[6] = 3 mg/kg; 6 weeks of 1% cholesterol diet, one month after administration; not significantly different from control
Source text: For these studies, NZW rabbits that respond to diet can be selected. All animals are fed a 1% cholesterol diet and their cholesterol values determined three days after the diet initiation. Twenty rabbits with similar cholesterol levels can be selected and changed back to a normal diet. After 15 days on a normal diet, cholesterol values can once again be determined to check if the values returned to normal. Animals whose cholesterol values have not returned to pre-diet levels can be monitored until they are normalized or removed from the study. Ten rabbits in each group are selected and simultaneous peptide administration and 1% diet initiation can follow. […] To study dose-response effects, smaller number of animals (five in each group can be administered three doses of peptide (5 mg/kg, 3 mg/kg and 1.5 mg/kg). After the initial experiments, the dose of the peptide can be decided. A solution of the peptide (sterile saline) can be injected through the ear vein, once a week for the duration of the study (based on previous experience, for 6 weeks). The study parameters include total cholesterol, lipoprotein levels, LOOH levels, PON activity in the plasma. At the end of six weeks, the rabbits are euthanized and histology assessed.

[7] = system: human VLDL; settings: cited from earlier work
[8] = system: atherogenic apo B-containing lipoproteins in human plasma; settings: cited from earlier work
[9] = single bolus 15 mg/kg intravenous
[10] = peptide-associated VLDL, absence of apo E

Substance: Ac-LRKLRKRLLRDWLKAFYDKVAEKLKEAF-NH2 [Ac-hE-18A-NH2]
- decreased lesion compared to control group ([1]; 50 ug/mouse retroorbital, 3 times weekly, four weeks, sixteen week old female apo E null mice, en face, p<0.001): 40%
- loss of animals / visible injury ([1]; 12 retroorbital administrations, 50 ug/mouse): no loss of animals and no visible injury to animals was observed
- inhibition of LPS-induced VCAM-1 expression [2]: more than 80%
- effect on plasma cholesterol levels [3]: no effect
- association with B-100-containing particles [4]: not able to associate
- time for plasma cholesterol to return to original levels ([5]; WHHL rabbits): ≤ 3 days
- arterial endothelial function [5, 9]: significantly improved
- formation of superoxide anion in arteries [5, 9]: significantly reduced
- increase in HDL paraoxonase activity [5, 9]: 5 fold
- plasma lipid hydroperoxide content [5, 9]: reduced significantly
- plasma cholesterol levels at 18 h ([5]; single bolus 15 mg/kg intravenous, reduced from 562±29 mg/dl): 287 ± 22 mg/dL
- plasma clearance of the peptide (3 mg/kg radiolabelled peptide): much faster than that observed in WHHL rabbits
- plasma residence time t1/2 (rabbits): 1 to 2 min
- average body weight [6]: 4.8 ± 0.4 kg
- average daily food intake [6]: 0.17 ± 0.03 kg
- interaction with VLDL [7]: displacement of apo E from VLDL
- enhanced degradation of VLDL compared to VLDL alone [7, 10]: three
- enhanced uptake of VLDL compared to VLDL alone [7, 10]: six
- association with atherogenic apo B-containing lipoproteins [8]: associates with atherogenic apo B-containing lipoproteins
